# In patent publication US10800791B2, “Triazole ACC inhibitors and uses thereof” (Gilead Apollo, LLC, priority 2015, dated 2020):
# Key:
# [1] = tested on: Phytophthora capsici (Pc); assay: Growth inhibition assay of fungal pathogens, Pc; type: cell-based; details: 48 h, growth inhibition at 48 hours vs 2% DMSO control, read-out: Concentration at 90% Inhibition Pc
# Outline: (§1)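 Spores from sub-cultured plates were diluted in 17% V8 liquid medium and exposed to compound from DMSO stocks at final concentrations of 50, 10 and 2 ppm or 2, 0.4 and 0.08 ppm. OD600 and visual ratings at 48 h were compared with the 2% DMSO control to give percent growth inhibition.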
# Botrtyis cinerea (Bc) = assay: Growth inhibition assay of fungal pathogens, Bc; type: cell-based; details: 48 h, Botrtyis cinerea; growth inhibition at 48 hours vs 2% DMSO control; read-out: Concentration at 90% Inhibition Bc
# Outline: as §1
# C. krusei = assay: Antifungal Activity Assay (broth microtiter MIC), C. krusei; type: cell-based, Candida krusei; details: Pichia kudriavzevii, ATCC6258, 48 h, Table 3b (additional results); ATCC 6258; 3 replicates; MIC recorded at 48 h; read-out: MIC, C. krusei ATCC 6258
# Outline: (§2)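 Colonies from 24 h Sabouraud dextrose agar plates (35° C) are suspended in RPMI 1640+MOPS and diluted to give 2.5×10^3 CFU/mL in the wells. Plates are set up per CLSI M27-A3. Visual MIC is recorded at 48 h.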
# Rhizoctonia solani (Rs) = assay: Growth inhibition assay of fungal pathogens, Rs; type: cell-based; details: 48 h, mycelial plugs, growth inhibition at 48 hours vs 2% DMSO control, read-out: Concentration at 90% Inhibition Rs
# C. parapsilosis = assay: Antifungal Activity Assay (broth microtiter MIC), C. parapsilosis; type: cell-based, Candida parapsilosis; details: Lodderomyces parapsilosis, ATCC22019, 48 h, Table 3b (additional results); ATCC 22019; 3 replicates; MIC recorded at 48 h; read-out: MIC, C. parapsilosis ATCC 22019
# Outline: as §2
# fungal (fACC2) = fungal (fACC2) (UniProt Q00955); details: read-out: fACC2 (in vitro ACC2 Inhibition Assay, IC50); Table 2b, additional results; ADP-Glo, 5 nM ACC2, 20 μM ATP, 20 μM acetyl-CoA
# [2] = tested on: Fusarium moniliforme (Fm); assay: Growth inhibition assay of fungal pathogens, Fm; type: cell-based; details: Fusarium verticillioides, 48 h, Fusarium moniliforme; growth inhibition at 48 hours vs 2% DMSO control; read-out: Concentration at 90% Inhibition Fm
# Outline: as §1
# Diplodia maydis (Dm) = assay: Growth inhibition assay of fungal pathogens, Dm; type: cell-based; details: Stenocarpella maydis, 48 h, Diplodia maydis; growth inhibition at 48 hours vs 2% DMSO control; read-out: Concentration at 90% Inhibition Dm
# Outline: as §1
# [3] = tested on: Fusarium virguliforme (Fv); assay: Growth inhibition assay of fungal pathogens, Fv; type: cell-based; details: 48 h, growth inhibition at 48 hours vs 2% DMSO control, read-out: Concentration at 90% Inhibition Fv
# Outline: as §1
# [4] = tested on: Collectotrichum graminicola (Cg); assay: Growth inhibition assay of fungal pathogens, Cg; type: cell-based; details: 48 h, Collectotrichum graminicola; growth inhibition at 48 hours vs 2% DMSO control; read-out: Concentration at 90% Inhibition Cg
# Outline: as §1
# human (hACC2) = human (hACC2) (Homo sapiens, UniProt O00763); assay: In vitro ACC inhibition assay (ADP-Glo), hACC2; type: biochemical; details: Table 2b, additional results, 5 nM ACC2, 20 μM ATP, 20 μM acetyl-CoA
# Method: The detailed procedure is as follows. […] 10 μL ADP glo reagent was added. […] 20 μL kinase detection reagent was added.
# C. albicans = assay: Antifungal Activity Assay (broth microtiter MIC), C. albicans; type: cell-based, Candida albicans; details: Candida albicans, ATCC90028, 48 h, Table 3b (additional results); ATCC 90028; 3 replicates; MIC recorded at 48 h; read-out: MIC, C. albicans ATCC 90028
# Outline: as §2
# Septoria tritici (St) = assay: Growth inhibition assay of fungal pathogens, St; type: cell-based; details: Zymoseptoria tritici, 48 h, Septoria tritici; growth inhibition at 48 hours vs 2% DMSO control; read-out: Concentration at 90% Inhibition St
# Outline: as §1
# Chain of fungal (fACC2) (Q00955 whole entry): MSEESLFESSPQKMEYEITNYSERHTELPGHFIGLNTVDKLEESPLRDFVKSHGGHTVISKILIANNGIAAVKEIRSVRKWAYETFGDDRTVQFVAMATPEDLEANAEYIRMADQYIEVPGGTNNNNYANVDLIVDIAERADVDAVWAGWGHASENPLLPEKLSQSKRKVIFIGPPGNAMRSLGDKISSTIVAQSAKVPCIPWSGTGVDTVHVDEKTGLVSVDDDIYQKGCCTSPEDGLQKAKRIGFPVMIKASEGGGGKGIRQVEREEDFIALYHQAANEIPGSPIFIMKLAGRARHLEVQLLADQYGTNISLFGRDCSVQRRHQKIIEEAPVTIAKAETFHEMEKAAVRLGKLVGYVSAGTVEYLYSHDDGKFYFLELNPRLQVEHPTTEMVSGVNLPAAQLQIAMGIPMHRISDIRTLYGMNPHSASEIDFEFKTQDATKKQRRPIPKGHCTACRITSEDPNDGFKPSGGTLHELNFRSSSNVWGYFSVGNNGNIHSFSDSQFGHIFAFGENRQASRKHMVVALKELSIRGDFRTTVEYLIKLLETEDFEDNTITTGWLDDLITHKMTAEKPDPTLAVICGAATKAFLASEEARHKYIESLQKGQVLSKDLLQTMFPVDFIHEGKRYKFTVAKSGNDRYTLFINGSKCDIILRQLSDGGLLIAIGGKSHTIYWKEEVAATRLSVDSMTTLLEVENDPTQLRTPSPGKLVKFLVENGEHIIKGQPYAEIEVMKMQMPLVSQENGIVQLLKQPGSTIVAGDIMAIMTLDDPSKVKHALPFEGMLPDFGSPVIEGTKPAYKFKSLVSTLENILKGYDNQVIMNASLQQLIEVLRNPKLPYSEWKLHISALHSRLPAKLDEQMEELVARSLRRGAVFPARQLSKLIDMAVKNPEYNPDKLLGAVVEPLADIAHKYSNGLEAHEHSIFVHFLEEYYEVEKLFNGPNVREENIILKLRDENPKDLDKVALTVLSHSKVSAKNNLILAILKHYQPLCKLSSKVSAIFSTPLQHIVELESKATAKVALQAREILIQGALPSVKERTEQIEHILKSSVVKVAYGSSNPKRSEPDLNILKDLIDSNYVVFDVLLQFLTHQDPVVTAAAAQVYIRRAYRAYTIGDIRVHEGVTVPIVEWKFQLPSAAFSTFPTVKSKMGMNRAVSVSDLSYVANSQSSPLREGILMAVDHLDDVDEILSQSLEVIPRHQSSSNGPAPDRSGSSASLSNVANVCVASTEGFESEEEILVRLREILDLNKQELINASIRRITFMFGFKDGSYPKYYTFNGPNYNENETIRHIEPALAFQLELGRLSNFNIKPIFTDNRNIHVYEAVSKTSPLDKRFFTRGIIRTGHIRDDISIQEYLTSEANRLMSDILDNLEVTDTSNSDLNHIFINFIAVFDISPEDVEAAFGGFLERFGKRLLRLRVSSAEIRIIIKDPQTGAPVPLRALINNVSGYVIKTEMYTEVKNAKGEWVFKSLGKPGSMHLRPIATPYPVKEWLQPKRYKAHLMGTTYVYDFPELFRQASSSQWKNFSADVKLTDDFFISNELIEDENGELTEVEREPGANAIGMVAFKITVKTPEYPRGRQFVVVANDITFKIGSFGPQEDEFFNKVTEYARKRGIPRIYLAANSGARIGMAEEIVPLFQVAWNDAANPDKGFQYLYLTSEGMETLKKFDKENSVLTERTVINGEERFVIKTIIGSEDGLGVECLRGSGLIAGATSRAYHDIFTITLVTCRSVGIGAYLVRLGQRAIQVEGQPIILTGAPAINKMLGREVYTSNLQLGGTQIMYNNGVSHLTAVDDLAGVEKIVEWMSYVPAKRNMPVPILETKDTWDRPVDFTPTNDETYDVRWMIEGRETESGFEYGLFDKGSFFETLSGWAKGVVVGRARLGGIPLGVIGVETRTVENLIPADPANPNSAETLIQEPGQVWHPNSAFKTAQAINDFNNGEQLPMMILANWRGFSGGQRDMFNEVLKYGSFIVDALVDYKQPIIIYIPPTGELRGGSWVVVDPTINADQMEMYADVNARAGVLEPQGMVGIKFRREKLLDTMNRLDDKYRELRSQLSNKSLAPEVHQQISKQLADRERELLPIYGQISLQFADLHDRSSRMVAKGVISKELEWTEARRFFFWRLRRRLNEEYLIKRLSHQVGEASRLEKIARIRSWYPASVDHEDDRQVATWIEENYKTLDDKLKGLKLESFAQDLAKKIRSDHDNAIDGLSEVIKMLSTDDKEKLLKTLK
# Chain of human (hACC2) (O00763 whole entry): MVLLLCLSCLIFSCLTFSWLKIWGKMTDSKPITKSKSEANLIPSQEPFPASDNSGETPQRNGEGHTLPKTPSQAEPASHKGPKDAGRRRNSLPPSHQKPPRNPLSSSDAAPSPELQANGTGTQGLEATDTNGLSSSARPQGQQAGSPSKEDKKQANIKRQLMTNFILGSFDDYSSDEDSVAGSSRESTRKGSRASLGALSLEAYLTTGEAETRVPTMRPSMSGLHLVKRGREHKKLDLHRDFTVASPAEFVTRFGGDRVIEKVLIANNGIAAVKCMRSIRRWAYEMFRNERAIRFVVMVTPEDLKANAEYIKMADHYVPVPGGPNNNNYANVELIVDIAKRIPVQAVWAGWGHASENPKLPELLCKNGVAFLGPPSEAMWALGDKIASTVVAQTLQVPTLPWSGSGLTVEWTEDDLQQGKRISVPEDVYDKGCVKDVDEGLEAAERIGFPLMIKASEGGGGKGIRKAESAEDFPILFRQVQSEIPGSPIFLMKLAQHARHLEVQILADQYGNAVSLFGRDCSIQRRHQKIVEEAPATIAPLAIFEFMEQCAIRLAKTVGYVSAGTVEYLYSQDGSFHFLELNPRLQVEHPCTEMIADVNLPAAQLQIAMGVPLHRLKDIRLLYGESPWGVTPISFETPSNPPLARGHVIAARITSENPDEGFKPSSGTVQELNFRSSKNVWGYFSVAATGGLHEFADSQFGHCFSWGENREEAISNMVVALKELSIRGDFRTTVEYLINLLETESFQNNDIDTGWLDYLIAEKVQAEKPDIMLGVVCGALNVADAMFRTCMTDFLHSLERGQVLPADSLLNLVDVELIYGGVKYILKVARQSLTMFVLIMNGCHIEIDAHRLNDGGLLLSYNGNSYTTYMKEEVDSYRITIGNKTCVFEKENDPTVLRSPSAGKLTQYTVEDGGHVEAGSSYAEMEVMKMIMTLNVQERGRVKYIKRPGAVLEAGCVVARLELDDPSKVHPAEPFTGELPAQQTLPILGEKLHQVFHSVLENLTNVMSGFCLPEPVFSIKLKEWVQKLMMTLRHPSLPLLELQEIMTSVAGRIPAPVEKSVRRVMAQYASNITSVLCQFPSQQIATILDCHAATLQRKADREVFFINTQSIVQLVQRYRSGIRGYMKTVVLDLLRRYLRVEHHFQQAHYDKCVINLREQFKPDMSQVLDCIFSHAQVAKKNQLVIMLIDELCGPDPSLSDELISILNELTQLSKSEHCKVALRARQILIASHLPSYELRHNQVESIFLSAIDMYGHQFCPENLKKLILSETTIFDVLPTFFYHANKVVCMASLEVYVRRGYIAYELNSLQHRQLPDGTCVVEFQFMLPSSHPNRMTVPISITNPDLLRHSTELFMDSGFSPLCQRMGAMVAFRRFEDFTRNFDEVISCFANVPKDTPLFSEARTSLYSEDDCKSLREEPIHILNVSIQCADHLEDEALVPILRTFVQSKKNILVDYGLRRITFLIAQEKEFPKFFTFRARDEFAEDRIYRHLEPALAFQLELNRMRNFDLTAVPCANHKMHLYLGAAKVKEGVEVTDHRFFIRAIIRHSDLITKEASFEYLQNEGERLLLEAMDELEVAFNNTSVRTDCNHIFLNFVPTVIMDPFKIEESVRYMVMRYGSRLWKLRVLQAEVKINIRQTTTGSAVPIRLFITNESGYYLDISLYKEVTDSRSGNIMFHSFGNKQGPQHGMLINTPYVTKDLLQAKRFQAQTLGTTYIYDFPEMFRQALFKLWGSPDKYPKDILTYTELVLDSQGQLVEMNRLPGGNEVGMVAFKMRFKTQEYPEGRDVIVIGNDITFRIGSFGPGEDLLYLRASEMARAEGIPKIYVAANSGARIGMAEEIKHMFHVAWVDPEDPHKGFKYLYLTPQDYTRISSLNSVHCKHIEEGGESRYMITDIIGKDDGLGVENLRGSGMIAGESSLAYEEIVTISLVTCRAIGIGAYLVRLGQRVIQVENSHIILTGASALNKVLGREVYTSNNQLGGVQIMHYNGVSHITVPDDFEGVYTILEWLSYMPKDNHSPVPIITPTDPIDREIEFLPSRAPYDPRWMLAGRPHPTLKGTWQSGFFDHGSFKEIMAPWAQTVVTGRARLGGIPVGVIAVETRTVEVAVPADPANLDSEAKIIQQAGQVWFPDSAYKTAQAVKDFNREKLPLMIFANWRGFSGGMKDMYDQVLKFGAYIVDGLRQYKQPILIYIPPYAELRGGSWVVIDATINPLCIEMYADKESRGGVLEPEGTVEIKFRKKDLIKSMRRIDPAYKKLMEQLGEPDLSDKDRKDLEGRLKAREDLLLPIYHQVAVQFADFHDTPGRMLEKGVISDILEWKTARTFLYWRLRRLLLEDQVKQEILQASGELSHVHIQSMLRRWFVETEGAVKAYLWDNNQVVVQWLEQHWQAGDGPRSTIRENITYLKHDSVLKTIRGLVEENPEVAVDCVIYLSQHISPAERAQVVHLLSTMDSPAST
SMILES,IC90 [1],IC90 (Botrtyis cinerea (Bc)),MIC (C. krusei),IC90 (Rhizoctonia solani (Rs)),MIC (C. parapsilosis),IC50 (fungal (fACC2)),IC90 [2],IC90 (Diplodia maydis (Dm)),IC90 [3],IC90 [4],IC50 (human (hACC2)),MIC (C. albicans),IC90 (Septoria tritici (St))
COc1ccccc1[C@H](Cn1c(=O)n([C@H](C)C(=O)N(C)C(C)C)c(=O)c2c(C)c(-n3nccn3)sc21)OCCC#N [Compound I-205],> 50 µg/mL,2 µg/mL,2.01 to 4 µg/mL,10 µg/mL,1.01 to 2 µg/mL,0.3 to 1 nM,2 µg/mL,10 µg/mL,10 µg/mL,10 µg/mL,5 to 10 nM,2.01 to 4 µg/mL,> 50 µg/mL
COc1ccccc1[C@H](Cn1c(=O)n([C@@H](C)C(=O)N(C)C(C)C)c(=O)c2c(C)c(-n3nccn3)sc21)OCCC#N [Compound I-206],10 µg/mL,2 µg/mL,2.01 to 4 µg/mL,0.08 µg/mL,1.01 to 2 µg/mL,0.3 to 1 nM,0.08 µg/mL,2 µg/mL,0.08 µg/mL,2 µg/mL,1 to 5 nM,2.01 to 4 µg/mL,10 µg/mL
COc1ccc(F)cc1[C@H](Cn1c(=O)n([C@H](C)C(=O)NC(C)C)c(=O)c2c(C)c(-n3nccn3)sc21)OCC(C)(C)C#N [Compound I-210],> 50 µg/mL,0.4 µg/mL,2.01 to 4 µg/mL,0.08 µg/mL,1.01 to 2 µg/mL,0.3 to 1 nM,0.08 µg/mL,0.4 µg/mL,0.4 µg/mL,0.4 µg/mL,1 to 5 nM,1.01 to 2 µg/mL,2 µg/mL
COc1ccc(F)cc1[C@H](Cn1c(=O)n([C@@H](C)C(=O)NC(C)C)c(=O)c2c(C)c(-n3nccn3)sc21)OCC(C)(C)C#N [Compound I-211],> 50 µg/mL,2 µg/mL,2.01 to 4 µg/mL,> 50 µg/mL,1.01 to 2 µg/mL,1 to 5 nM,2 µg/mL,10 µg/mL,> 50 µg/mL,> 50 µg/mL,10 to 40 nM,1.01 to 2 µg/mL,> 50 µg/mL
COc1ccc(F)cc1[C@H](Cn1c(=O)n([C@H](C)C(N)=O)c(=O)c2c(C)c(-n3nccn3)sc21)OCC(C)(C)C#N [Compound I-212],> 50 µg/mL,2 µg/mL,> 4.01 µg/mL,2 µg/mL,2.01 to 4 µg/mL,1 to 5 nM,2 µg/mL,10 µg/mL,10 µg/mL,10 µg/mL,1 to 5 nM,0.25 to 1 µg/mL,> 50 µg/mL
COc1ccc(F)cc1[C@H](Cn1c(=O)n([C@@H](C)C(N)=O)c(=O)c2c(C)c(-n3nccn3)sc21)OCC(C)(C)C#N [Compound I-213],> 50 µg/mL,> 50 µg/mL,> 4.01 µg/mL,> 50 µg/mL,2.01 to 4 µg/mL,1 to 5 nM,10 µg/mL,> 50 µg/mL,> 50 µg/mL,> 50 µg/mL,5 to 10 nM,0.25 to 1 µg/mL,> 50 µg/mL
